For the assay, the target named is T1, AMPK A1/B1/G1 (Homo sapiens, UniProt Q13131).
T1 construct: purchased Thermo Fisher Scientific (Life Technologies) SelectScreen
Nature of the assay: SelectScreen Z'LYTE. Format: biochemical. The gist of the method: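 SelectScreen broad panel; activity (Z'LYTE, Adapta) plus binding formats. ATP: Km app for CSF1R Z'LYTE; 10 for CAMK1 Adapta. Readout = % per kinase.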

In PMC6934184, “Selective DNA-PKcs inhibition extends the therapeutic index of localized radiotherapy and chemotherapy” (The Journal of Clinical Investigation, 2019) one finds inhibition data, which are given here for one compound.

In general, inhibition refers to the drop in the measured response relative to a control, in per cent.

T1 sequence (Q13131 whole entry): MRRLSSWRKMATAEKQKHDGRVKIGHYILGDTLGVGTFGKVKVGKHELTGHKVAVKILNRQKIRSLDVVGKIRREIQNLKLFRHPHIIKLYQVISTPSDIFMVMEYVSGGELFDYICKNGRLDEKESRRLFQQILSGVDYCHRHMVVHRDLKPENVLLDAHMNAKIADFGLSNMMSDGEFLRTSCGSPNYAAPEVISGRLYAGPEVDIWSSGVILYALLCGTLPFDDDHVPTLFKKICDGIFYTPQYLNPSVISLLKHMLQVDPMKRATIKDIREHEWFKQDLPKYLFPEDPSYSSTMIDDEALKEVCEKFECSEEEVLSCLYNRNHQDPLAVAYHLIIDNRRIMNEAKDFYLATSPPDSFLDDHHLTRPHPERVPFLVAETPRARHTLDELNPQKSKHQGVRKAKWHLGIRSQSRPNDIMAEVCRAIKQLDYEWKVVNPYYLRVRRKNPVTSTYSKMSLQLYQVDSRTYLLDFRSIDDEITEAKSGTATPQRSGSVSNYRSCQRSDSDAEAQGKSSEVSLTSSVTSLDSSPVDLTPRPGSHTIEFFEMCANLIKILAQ
T1 sequence (Q9Y478 whole entry partner): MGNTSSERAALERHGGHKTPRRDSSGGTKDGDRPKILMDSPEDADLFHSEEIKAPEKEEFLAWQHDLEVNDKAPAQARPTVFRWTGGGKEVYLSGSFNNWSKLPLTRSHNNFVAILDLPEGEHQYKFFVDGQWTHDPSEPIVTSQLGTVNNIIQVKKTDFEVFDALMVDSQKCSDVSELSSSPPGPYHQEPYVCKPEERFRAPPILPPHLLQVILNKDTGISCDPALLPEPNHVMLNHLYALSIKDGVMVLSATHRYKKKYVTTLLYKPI
T1 sequence (P54619 whole entry partner): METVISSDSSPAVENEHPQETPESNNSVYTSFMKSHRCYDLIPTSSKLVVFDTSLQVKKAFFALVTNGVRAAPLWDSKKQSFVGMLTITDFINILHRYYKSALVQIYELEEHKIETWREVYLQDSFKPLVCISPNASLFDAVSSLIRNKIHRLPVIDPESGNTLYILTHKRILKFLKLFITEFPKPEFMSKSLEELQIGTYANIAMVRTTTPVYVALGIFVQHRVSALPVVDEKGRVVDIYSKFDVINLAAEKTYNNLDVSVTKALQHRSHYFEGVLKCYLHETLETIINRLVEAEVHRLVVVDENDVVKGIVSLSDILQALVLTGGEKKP

As for `CN(C(=O)CN1CCOCC1)c1ccc2sc3c(-c4cccc5c(=O)cc(N6CC7CCC(C6)O7)oc45)cccc3c2c1` [NU5455], the inhibition at 1 µM is -1.2%.
